Measured values from patent publication US10987372B2, “Anti-hepatoma-virus agent” (KAGOSHIMA UNIVERSITY, priority 2016, dated 2021).

What was measured:
HBV = experiment: Determination of anti-HBV activity: HBV DNA by quantitative PCR in HepG2.2.15 cells; type: cell-based; conditions: for anti-HBV activity (intracellular HBV DNA amount): 1 μM, culture for 7 days, quantitative PCR (FIG. 3)
Method: FIG. 3 is a graph showing anti-HBV activity levels of purine antimetabolites. HepG2.2.15 cells were seeded at a concentration of 1×10^5 cells/well. Then, 24 hours later, purine antimetabolites (clofarabine, cladribine, and fludarabine) and entecavir (ETV) were each diluted to result in a final concentration of 1 μM and each dilution was added to cells. After culture for 7 days, the cytoplasmic fraction was collected and DNA was purified by phenol-chloroform extraction. The intracellular HBV DNA amount was evaluated by quantitative PCR using 20 ng of purified DNA.
FIG. 5 is a graph showing anti-HBV activity of clofarabine. HepG2.2.15 cells were seeded at a concentration of 1×10^5 cells/well. Then, 24 hour later, clofarabine was diluted to result in concentrations of 0, 0.97, 1.95, 3.90, 7.81, 15.6, 31.3, 62.5, 125, 250, 500, and 1000 nM and each dilution was added to cells. After culture for 7 days, the cytoplasmic fraction was collected and DNA was purified by phenol-chloroform extraction. The intracellular HBV DNA amount was evaluated by quantitative PCR using 20 ng of purified DNA.
Anti-HBV activity was evaluated by quantitative PCR for determining the amount of HBV DNA in cells or HBV DNA in the culture supernatant on day 7 after the addition of the agent using the HepG2.2.15 cell line of HBV-producing cells obtained by introducing a gene having a length twice that of the HBV genome into the human liver cancer cell line HepG2. For PCR of HBV DNA, a forward primer (HBV-S190F; 5′-GCT CGT GTT ACA GGC GGG-3′: SEQ ID NO: 1) and a reverse primer (HBV-S703R; 5′-GAACCACTGAACAAATGGCACTAGTA-3′: SEQ ID NO: 2) were used. PCR was performed by carrying out a reaction at 95° C. for 10 sec, 62° C. for 10 sec, and 72° C. for 30 sec for 35 cycles.
For screening of the anti-HBV agent, the HepG2.2.15 line obtained by introducing the HBV gene into HepG2 cells of a human cancer cell line was used (Production of hepatitis B virus particles in HepG2 cells transfected with cloned hepatitis B virus DNA. Sells M A, Chen M L, and Acs G., Proc. Natl. Acad. Sci. USA 84: 1005-1009 (1987)). […]

HCV = experiment: Evaluation of anti-HCV activity: Renilla luciferase HCV RNA replication reporter in OR6 cells; type: cell-based; conditions: 1 μM, culture for 3 days (FIG. 4)
Method: FIG. 4 is a graph showing anti-HCV activity levels of purine antimetabolites. OR6 cells were seeded at a concentration of 1.5×10^4 cells/well. Then, 24 hours later, purine antimetabolites were each diluted to result in a final concentration of 1 μM and each dilution was added to cells. After culture for 3 days, cells were collected to determine Renilla luciferase activity.
FIG. 7 is a graph showing anti-HCV activity of clofarabine. OR6 cells were seeded at a concentration of 1.5×10^4 cells/well. Then, 24 hour later, clofarabine was diluted to result in concentrations of 0, 15.6, 31.3, 62.5, 125, 250, 500, and 1000 nM and each dilution was added to cells. After culture for 3 days, cells were collected to determine Renilla luciferase activity.
Anti-HCV activity was evaluated using OR6 cells from the human liver cancer cell line HuH-7 and ORL8 cells from the human liver cancer cell line Li23. Since the Renilla Luciferase gene has been incorporated into the genome of the genotype-1b O strain in OR6 cells and ORL8 cells, it is possible to conveniently and accurately evaluate the level of HCV RNA replication by determining the Renilla Luciferase activity. Each agent was added to OR6 cells or ORL8 cells, the cells were recovered on day 3, and the Renilla Luciferase activity was determined. […]

leukemia = conditions: clinical use for leukemia; cited from earlier work

Row | Structure (SMILES) | anti-HBV activity (intracellular HBV DNA amount) (HBV) | concentration at which anti-HBV activity is exhibited (HBV; 7 days (FIG. 5)) | anti-HCV activity (Renilla luciferase activity) (HCV) | effective blood level for leukemia (leukemia)
1 | Nc1nc(Cl)nc2c1ncn2[C@@H]1O[C@H](CO)[C@@H](O)[C@@H]1F [clofarabine, 2-chloro-9-(2-deoxy-2-fluoro-β-D-arabinofuranosyl)adenine] | comparable to that of entecavir | about 20 nM | comparable to that of sofosbuvir | about 2 μM
2 | Nc1nc(Cl)nc2c1ncn2[C@H]1C[C@H](O)[C@@H](CO)O1 [cladribine, 2-chloro-9-(2-deoxy-β-D-arabinofuranosyl)adenine] | does not have anti-HBV activity | – | has anti-HCV activity | –
